This is an account of results in patent publication US8604038B2, “Pyrrolidine derived beta 3 adrenergic receptor agonists” (Merck Sharp & Dohme Corp., priority 2009, dated 2013).

Structures are written as SMILES. Read-outs that look alike come from different tables or passages of the source.

The target in this assay is T1, human β3 adrenergic receptor (Homo sapiens, UniProt P13945).
T1 construct: expressed in transfected cells; host or cells: CHO (Chinese hamster ovary) cells, stably transfected
Briefly: Beta-3 agonist in vitro functional assay (cAMP production, LANCE, transfected CHO cells). The format is cell-based. On the procedure:
Functional Assay: For compounds in examples 1-50, cAMP production in response to ligand is measured according to Barton, et al. (1991, Agonist-induced desensitization of D2 dopamine receptors in human Y-79 retinoblastoma cells. Mol. Pharmacol. […]:650-658) modified as follows. The cAMP production is measured using a homogenous time-resolved fluorescence resonance energy transfer immunoassay (LANCE™, Perkin Elmer) according to the manufacture's instructions. Chinese hamster ovary (CHO) cells, stably transfected with the cloned β-adrenergic receptor (β1, β2 or β3) are harvested after 3 days of subculturing. Harvesting of cells is done with Enzyme-free Dissociation Media (Specialty Media). Cells are then counted and resuspended in assay buffer (Hank's Balanced salt solution supplemented with 5 mM HEPES, […]) containing a phosphodiesterase inhibitor (IBMX, 0.6 mM). The reaction is initiated by mixing 6,000 cells in 6 μL with 6 μL Alexa Fluor labeled cAMP antibody (LANCE™ kit) which is then added to an assay well containing 12 μL of compound (diluted in assay buffer to 2× final concentration). The reaction proceeds for 30 minutes at RT and is terminated by the addition of 24 ul detection buffer (LANCE™ kit). The assay plate is then incubated for 1 h at RT and time-resolved fluorescence measured on a Perkin Elmer Envision reader or equivalent. The unknown cAMP level is determined by comparing fluorescence levels to a cAMP standard curve.
The non-selective, full agonist β-adrenergic ligand isoproterenol is used at all three receptors to determine maximal stimulation. The human β3 adrenergic receptor (AR) selective ligand (S)-N-[4-[2-[[2-hydroxy-3-(4-hydroxyphenoxy)propyl]amino]ethyl]-phenyl]-4-iodobenzenesulfonamide is used as a control in all assays. […] The EC50 is defined as the concentration of compound that gives 50% activation of its own maximum. Data are analyzed using Microsoft Excel and Graphpad Prism or an internally developed data analysis software package.
The EC50 is defined as the concentration of compound that gives 50% activation of its own maximum. Functional antagonist assays are performed similar to described above; however, unknown ligands are titrated at β-adrenergic receptor subtypes 1 and 2 at a final concentration in the assay of 10^-12 M to 10^-5 M in the presence of 10^-9 M full agonist β-adrenergic ligand isoproterenol. The EC50 is defined as the concentration of compound that gives 50% inhibition of the full agonist response. Data are analyzed using Microsoft Excel and Graphpad Prism or an internally developed data analysis software package.
On the technique in general: cAMP levels reflect the balance of adenylyl cyclase and phosphodiesterase activity.

Where [1] appears, read: Table 3, CHO cells with cloned β3 receptor, ligands titrated 10^-12 M to 10^-5 M, read-out: Human β3 agonist functional activity.
Setting [2] is: Table 1, CHO cells with cloned β3 receptor, ligands titrated 10^-10 M to 10^-5 M, read-out: Human β3 agonist functional activity.

T1 sequence (P13945 whole entry): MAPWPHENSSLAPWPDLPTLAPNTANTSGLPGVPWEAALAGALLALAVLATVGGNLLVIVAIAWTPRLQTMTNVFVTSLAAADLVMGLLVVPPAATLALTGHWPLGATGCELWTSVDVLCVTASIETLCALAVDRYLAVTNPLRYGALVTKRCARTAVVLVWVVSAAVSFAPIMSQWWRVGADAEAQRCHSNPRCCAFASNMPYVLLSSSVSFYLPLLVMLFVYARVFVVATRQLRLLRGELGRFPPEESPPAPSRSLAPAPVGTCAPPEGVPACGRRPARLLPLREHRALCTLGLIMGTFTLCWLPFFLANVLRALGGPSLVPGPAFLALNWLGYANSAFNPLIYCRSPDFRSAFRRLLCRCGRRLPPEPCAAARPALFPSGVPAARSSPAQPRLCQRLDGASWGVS

Regarding `Cc1cnc(CN(CC(C)C)C(=O)c2ccc(C[C@@H]3CC[C@H]([C@H](O)c4ccccc4)N3)cc2)s1` [Example 116], the EC50 under setting [1] was in the range of 10 to 99.9 nM.

As for `Cc1cccn2cc(CN(C)C(=O)c3ccc(C[C@@H]4CC[C@H]([C@H](O)c5ccccc5)N4)cc3)nc12` [Example 126], under setting [1], the EC50 was in the range of 100 to 999 nM.

For the molecule `O=C(NCc1cc(-c2ccccc2)no1)c1ccc(C[C@@H]2CC[C@H]([C@H](O)c3ccccc3)N2)cc1` [Example 29], the EC50 under setting [2] was in the range of 10 to 99.9 nM.

`O=C(NCc1nc(-c2ccccc2)n[nH]1)c1ccc(C[C@@H]2CC[C@H]([C@H](O)c3cccnc3)N2)cc1` [Example 33]: the EC50 under setting [2] was 1 to 9.9 nM.

As to `Cc1cc2nc(CN(C)C(=O)c3ccc(C[C@@H]4CC[C@H]([C@H](O)c5ccccc5)N4)cc3)[nH]c2cc1C` [Example 101], the EC50 under setting [1] is 100 to 999 nM.

Turning to `CN(CCc1cccnc1)C(=O)c1ccc(C[C@@H]2CC[C@H]([C@H](O)c3ccccc3)N2)cc1` [Example 53], the EC50 under setting [1] is 10 to 99.9 nM.

As for `CN(Cc1nc2ccccc2[nH]1)C(=O)c1ccc(C[C@@H]2CC[C@H]([C@H](O)c3ccccc3)N2)cc1` [Example 84], under setting [1], the EC50 fell in the range of 100 to 999 nM.

For `CN(C)C(=O)c1ccc(C[C@@H]2CC[C@H]([C@H](O)c3ccccc3)N2)cc1` [Example 69], the EC50 under setting [1] was in the range of 10 to 99.9 nM.

`CN(Cc1cccnc1)C(=O)c1ccc(C[C@@H]2CC[C@H]([C@H](O)c3ccccc3)N2)cc1` [Example 51, 4-({(2S,5R)-5-[(R)-hydroxy(phenyl)methyl]pyrrolidin-2-yl}methyl)-N-methyl-N-(pyridine-3-ylmethyl)benzamide]: the EC50 (given as a range, CHO cells with cloned β3 receptor, read-out: human Beta-3 agonist functional activity) lay in the range of 1 to 9.9 nM.

As to `CN1CCC(NC(=O)c2ccc(C[C@@H]3CC[C@H]([C@H](O)c4cccnc4)N3)cc2)C1=O` (stereo partly drawn) [Example 49], the EC50 under setting [2] was 100 to 999 nM.

With `CN(Cc1cccnn1)C(=O)c1ccc(C[C@@H]2CC[C@H]([C@H](O)c3ccc(N)nc3)N2)cc1` [Example 56], the EC50 under setting [1] was in the range of 10 to 99.9 nM.

`CN(Cc1ccncn1)C(=O)c1ccc(C[C@@H]2CC[C@H]([C@H](O)c3ccccc3)N2)cc1` [Example 79]: the EC50 under setting [1] lay within 100 to 999 nM.

As to `Cc1cccnc1CNC(=O)c1ccc(C[C@@H]2CC[C@H]([C@H](O)c3ccccc3)N2)cc1` [Example 13], the EC50 under setting [2] fell in the range of 10 to 99.9 nM.

For `CN(Cc1nc2ccccc2n1C)C(=O)c1ccc(C[C@@H]2CC[C@H]([C@H](O)c3ccccc3)N2)cc1` [Example 70], the EC50 under setting [1] was in the range of 100 to 999 nM.

For the molecule `O=C(NCc1cc(-c2ccccc2)no1)c1ccc(C[C@@H]2CC[C@H]([C@H](O)c3cccnc3)N2)cc1` [Example 30], the EC50 under setting [2] lay within 10 to 99.9 nM.

As to `CC(c1cccnc1)N(C)C(=O)c1ccc(C[C@@H]2CC[C@H]([C@H](O)c3ccccc3)N2)cc1` (stereo partly drawn) [Example 128], the EC50 under setting [1] is 1 to 9.9 nM.

Turning to `O=C(NCc1nccc(C2CC2)n1)c1ccc(C[C@@H]2CC[C@H]([C@H](O)c3ccccc3)N2)cc1` [Example 15], the EC50 under setting [2] lay within 10 to 99.9 nM.

As for `O=C(NCc1ccccc1-c1c[nH]cn1)c1ccc(C[C@@H]2CC[C@H]([C@H](O)c3ccccc3)N2)cc1` [Example 46], under setting [2], the EC50 was 100 to 999 nM.

`CN(Cc1ccncc1)C(=O)c1ccc(C[C@@H]2CC[C@H]([C@H](O)c3ccccc3)N2)cc1` [Example 71]: the EC50 under setting [1] lay within 100 to 999 nM.

For `CN(Cc1cccc(N2CCCC2)n1)C(=O)c1ccc(C[C@@H]2CC[C@H]([C@H](O)c3ccccc3)N2)cc1` [Example 83], the EC50 under setting [1] lay in the range of 100 to 999 nM.

Regarding `O=C(NCc1nc2ccccc2[nH]1)c1ccc(C[C@@H]2CC[C@H]([C@H](O)c3ccccc3)N2)cc1` [Example 34], the EC50 under setting [2] lay in the range of 10 to 99.9 nM.

`Cc1csc(CN(C)C(=O)c2ccc(C[C@@H]3CC[C@H]([C@H](O)c4ccccc4)N3)cc2)n1` [Example 123]: the EC50 under setting [1] fell in the range of 100 to 999 nM.

As to `CN(Cc1cc(Br)ccn1)C(=O)c1ccc(C[C@@H]2CC[C@H]([C@H](O)c3ccccc3)N2)cc1` [Example 57], the EC50 under setting [1] was in the range of 10 to 99.9 nM.

With `CN(Cc1ncn(C)n1)C(=O)c1ccc(C[C@@H]2CC[C@H]([C@H](O)c3ccccc3)N2)cc1` [Example 73], the EC50 under setting [1] was in the range of 100 to 999 nM.

`O=C(NCc1nc2cccnc2[nH]1)c1ccc(C[C@@H]2CC[C@H]([C@H](O)c3ccccc3)N2)cc1` [Example 37]: under setting [2], the EC50 is 10 to 99.9 nM.

With `Cc1cc(C2CC2)nc(CNC(=O)c2ccc(C[C@@H]3CC[C@H]([C@H](O)c4ccccc4)N3)cc2)n1` [Example 16], the EC50 under setting [2] fell in the range of 10 to 99.9 nM.

For the molecule `CN(Cc1cnccn1)C(=O)c1ccc(C[C@@H]2CC[C@H]([C@H](O)c3ccccc3)N2)cc1` [Example 74], the EC50 under setting [1] fell in the range of 10 to 99.9 nM.

Take `O=C(NCc1nc(C(F)(F)F)cc(=O)[nH]1)c1ccc(C[C@@H]2CC[C@H]([C@H](O)c3ccccc3)N2)cc1` [Example 28]: under setting [2], the EC50 is 10 to 99.9 nM.

For `CC(C1COc2ccccc2O1)N(C)C(=O)c1ccc(C[C@@H]2CC[C@H]([C@H](O)c3ccccc3)N2)cc1` (single isomer, unassigned) [Example 95], the EC50 under setting [1] fell in the range of 100 to 999 nM.

For the molecule `Cc1nccnc1CNC(=O)c1ccc(C[C@@H]2CC[C@H]([C@H](O)c3ccccc3)N2)cc1` [Example 20], the EC50 under setting [2] fell in the range of 10 to 99.9 nM.

With `CN(Cc1ccc(Br)cn1)C(=O)c1ccc(C[C@@H]2CC[C@H]([C@H](O)c3ccccc3)N2)cc1` [Example 78], the EC50 under setting [1] fell in the range of 10 to 99.9 nM.

Turning to `O=C(NCc1nccc2ccccc12)c1ccc(C[C@@H]2CC[C@H]([C@H](O)c3cccnc3)N2)cc1` [Example 43], the EC50 under setting [2] was 10 to 99.9 nM.

Take `CN(Cc1nn(C)c(Cl)c1Cl)C(=O)c1ccc(C[C@@H]2CC[C@H]([C@H](O)c3ccccc3)N2)cc1` [Example 75]: under setting [1], the EC50 is 1 to 9.9 nM.

As for `COCCCN(Cc1cccnn1)C(=O)c1ccc(C[C@@H]2CC[C@H]([C@H](O)c3ccccc3)N2)cc1` [Example 131], the EC50 under setting [1] was 100 to 999 nM.

Turning to `O=C(NC1CCCc2cccnc21)c1ccc(C[C@@H]2CC[C@H]([C@H](O)c3ccccc3)N2)cc1` (stereo partly drawn) [Example 48], the EC50 under setting [2] was 100 to 999 nM.

Regarding `Cc1ccc(OCCN(C)C(=O)c2ccc(C[C@@H]3CC[C@H]([C@H](O)c4ccccc4)N3)cc2)cc1` [Example 120], under setting [1], the EC50 was 1000 to 3000 nM.

As to `CN(Cc1ncc(Cl)cn1)C(=O)c1ccc(C[C@@H]2CC[C@H]([C@H](O)c3ccccc3)N2)cc1` [Example 125], the EC50 under setting [1] is 100 to 999 nM.

Consider `Nc1nc(CNC(=O)c2ccc(C[C@@H]3CC[C@H]([C@H](O)c4ccccc4)N3)cc2)cs1` [Example 25], for which, under setting [2], the EC50 lay in the range of 10 to 99.9 nM.

For `COCCN(C)C(=O)c1ccc(C[C@@H]2CC[C@H]([C@H](O)c3ccccc3)N2)cc1` [Example 64], the EC50 under setting [1] fell in the range of 10 to 99.9 nM.

On to `CN(Cc1noc(C2CC2)n1)C(=O)c1ccc(C[C@@H]2CC[C@H]([C@H](O)c3ccccc3)N2)cc1` [Example 112], for which the EC50 under setting [1] was in the range of 10 to 99.9 nM.

As to `CN(Cc1ccccc1)C(=O)c1ccc(C[C@@H]2CC[C@H]([C@H](O)c3ccccc3)N2)cc1` [Example 68], under setting [1], the EC50 fell in the range of 100 to 999 nM.

As to `CN(C(=O)c1ccc(C[C@@H]2CC[C@H]([C@H](O)c3ccccc3)N2)cc1)C1CCOC1` (stereo partly drawn) [Example 117], the EC50 under setting [1] was in the range of 100 to 999 nM.

Turning to `CN(Cc1ncccc1F)C(=O)c1ccc(C[C@@H]2CC[C@H]([C@H](O)c3ccccc3)N2)cc1` [Example 106], the EC50 under setting [1] lay within 10 to 99.9 nM.

For `Nc1nc(CNC(=O)c2ccc(C[C@@H]3CC[C@H]([C@H](O)c4cccnc4)N3)cc2)cs1` [Example 26], under setting [2], the EC50 fell in the range of 10 to 99.9 nM.

Regarding `CN(Cc1cnn(-c2ccccc2)n1)C(=O)c1ccc(C[C@@H]2CC[C@H]([C@H](O)c3ccccc3)N2)cc1` [Example 58], the EC50 under setting [1] lay in the range of 10 to 99.9 nM.

As for `CC(C1COc2ccccc2O1)N(C)C(=O)c1ccc(C[C@@H]2CC[C@H]([C@H](O)c3ccccc3)N2)cc1` (single isomer, unassigned) [Example 94], the EC50 under setting [1] lay within 10 to 99.9 nM.

On to `CN(Cc1cccc(F)c1)C(=O)c1ccc(C[C@@H]2CC[C@H]([C@H](O)c3ccccc3)N2)cc1` [Example 60], for which, under setting [1], the EC50 fell in the range of 1 to 9.9 nM.

As for `CN(Cc1nnn(C)n1)C(=O)c1ccc(C[C@@H]2CC[C@H]([C@H](O)c3ccccc3)N2)cc1` [Example 72], the EC50 under setting [1] fell in the range of 10 to 99.9 nM.

For `O=C(NCc1cccnn1)c1ccc(C[C@@H]2CC[C@H]([C@H](O)c3ccccc3)N2)cc1` [Example 8], under setting [2], the EC50 fell in the range of 100 to 999 nM.

Regarding `CN(Cc1n[nH]c2c1CCCC2)C(=O)c1ccc(C[C@@H]2CC[C@H]([C@H](O)c3ccccc3)N2)cc1` [Example 85], under setting [1], the EC50 is < 1 nM.

As to `CN(Cc1nccn1C)C(=O)c1ccc(C[C@@H]2CC[C@H]([C@H](O)c3ccccc3)N2)cc1` [Example 76], the EC50 under setting [1] lay in the range of 100 to 999 nM.
